How the values were obtained:
[1] = tested on: Tyrosine-protein kinase ABL1 (Homo sapiens), P00519 [F317L]; details: Compound concentration 1000.0 nM
[2] = tested on: Tyrosine-protein kinase ABL1 (Homo sapiens), P00519 [H396P]; details: Compound concentration 1000.0 nM
[3] = target: Atypical kinase COQ8B, mitochondrial (Homo sapiens) (UniProt Q96D53); details: Compound concentration 1000.0 nM
[4] = target: ALK tyrosine kinase receptor (Homo sapiens) (UniProt Q9UM73); details: Compound concentration 1000.0 nM
[5] = target: Aurora kinase C (Homo sapiens) (UniProt Q9UQB9); details: Compound concentration 1000.0 nM
[6] = target: Cyclin-dependent kinase 3 (Homo sapiens) (UniProt Q00526); details: Compound concentration 1000.0 nM
[7] = tested on: Epidermal growth factor receptor (Homo sapiens), P00533 [UNDEFINED MUTATION]; details: Compound concentration 1000.0 nM
[8] = target: Receptor tyrosine-protein kinase erbB-3 (Homo sapiens) (UniProt P21860); details: Compound concentration 1000.0 nM
[9] = tested on: Receptor-type tyrosine-protein kinase FLT3 (Homo sapiens), P36888 [K663Q]; details: Compound concentration 1000.0 nM
[10] = target: Homeodomain-interacting protein kinase 1 (Homo sapiens) (UniProt Q86Z02); details: Compound concentration 1000.0 nM
[11] = target: Insulin receptor (Homo sapiens) (UniProt P06213); details: Compound concentration 1000.0 nM
[12] = target: Serine/threonine-protein kinase STK11 (Homo sapiens) (UniProt Q15831); details: Compound concentration 1000.0 nM
Serine/threonine-protein kinase STK11 (Homo sapiens), sequence (Q15831 whole entry): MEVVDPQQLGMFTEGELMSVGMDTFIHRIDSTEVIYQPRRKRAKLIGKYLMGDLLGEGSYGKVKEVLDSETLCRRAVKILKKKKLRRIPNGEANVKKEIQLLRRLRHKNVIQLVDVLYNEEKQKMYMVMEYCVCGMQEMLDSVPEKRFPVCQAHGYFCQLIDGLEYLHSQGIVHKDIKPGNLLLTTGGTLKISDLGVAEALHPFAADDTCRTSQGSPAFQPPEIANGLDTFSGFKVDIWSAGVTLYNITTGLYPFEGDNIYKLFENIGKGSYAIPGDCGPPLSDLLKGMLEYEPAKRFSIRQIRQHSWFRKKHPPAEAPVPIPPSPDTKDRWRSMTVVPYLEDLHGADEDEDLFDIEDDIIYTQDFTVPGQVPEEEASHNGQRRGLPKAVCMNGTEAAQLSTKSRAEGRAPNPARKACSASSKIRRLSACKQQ

[13] = target: Leukocyte tyrosine kinase receptor (Homo sapiens) (UniProt P29376); details: Compound concentration 1000.0 nM
Leukocyte tyrosine kinase receptor (Homo sapiens), sequence (P29376 whole entry): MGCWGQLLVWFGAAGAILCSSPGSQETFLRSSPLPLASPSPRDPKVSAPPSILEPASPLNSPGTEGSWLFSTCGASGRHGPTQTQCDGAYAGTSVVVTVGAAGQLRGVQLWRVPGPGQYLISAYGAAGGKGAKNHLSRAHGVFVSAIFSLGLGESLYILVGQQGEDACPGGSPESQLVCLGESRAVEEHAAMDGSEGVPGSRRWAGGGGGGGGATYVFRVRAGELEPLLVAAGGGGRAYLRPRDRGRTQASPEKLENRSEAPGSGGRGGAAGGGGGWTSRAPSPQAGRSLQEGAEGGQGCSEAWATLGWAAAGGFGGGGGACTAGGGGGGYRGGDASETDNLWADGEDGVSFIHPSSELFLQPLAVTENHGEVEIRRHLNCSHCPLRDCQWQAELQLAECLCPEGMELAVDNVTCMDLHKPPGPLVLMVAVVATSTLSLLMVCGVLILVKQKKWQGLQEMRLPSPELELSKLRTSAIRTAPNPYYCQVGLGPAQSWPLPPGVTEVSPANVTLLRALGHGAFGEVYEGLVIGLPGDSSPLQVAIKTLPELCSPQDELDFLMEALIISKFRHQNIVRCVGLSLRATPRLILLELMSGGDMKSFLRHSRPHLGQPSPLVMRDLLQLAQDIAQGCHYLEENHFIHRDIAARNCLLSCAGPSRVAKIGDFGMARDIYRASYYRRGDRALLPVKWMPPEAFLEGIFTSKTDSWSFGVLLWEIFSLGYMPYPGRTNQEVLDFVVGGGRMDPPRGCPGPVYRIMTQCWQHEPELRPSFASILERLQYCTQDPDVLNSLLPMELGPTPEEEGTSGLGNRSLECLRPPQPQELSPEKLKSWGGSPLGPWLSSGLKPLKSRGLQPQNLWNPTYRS

[14] = target: Mitogen-activated protein kinase kinase kinase 9 (Homo sapiens) (UniProt P80192); details: Compound concentration 1000.0 nM
[15] = target: Myosin light chain kinase, smooth muscle (Homo sapiens) (UniProt Q15746); details: Compound concentration 1000.0 nM
[16] = target: Serine/threonine-protein kinase Nek5 (Homo sapiens) (UniProt Q6P3R8); details: Compound concentration 1000.0 nM
[17] = target: Serine/threonine-protein kinase NIM1 (Homo sapiens) (UniProt Q8IY84); details: Compound concentration 1000.0 nM
[18] = target: 1-phosphatidylinositol 3-phosphate 5-kinase (Homo sapiens) (UniProt Q9Y2I7); details: Compound concentration 1000.0 nM
1-phosphatidylinositol 3-phosphate 5-kinase (Homo sapiens), sequence (Q9Y2I7 whole entry): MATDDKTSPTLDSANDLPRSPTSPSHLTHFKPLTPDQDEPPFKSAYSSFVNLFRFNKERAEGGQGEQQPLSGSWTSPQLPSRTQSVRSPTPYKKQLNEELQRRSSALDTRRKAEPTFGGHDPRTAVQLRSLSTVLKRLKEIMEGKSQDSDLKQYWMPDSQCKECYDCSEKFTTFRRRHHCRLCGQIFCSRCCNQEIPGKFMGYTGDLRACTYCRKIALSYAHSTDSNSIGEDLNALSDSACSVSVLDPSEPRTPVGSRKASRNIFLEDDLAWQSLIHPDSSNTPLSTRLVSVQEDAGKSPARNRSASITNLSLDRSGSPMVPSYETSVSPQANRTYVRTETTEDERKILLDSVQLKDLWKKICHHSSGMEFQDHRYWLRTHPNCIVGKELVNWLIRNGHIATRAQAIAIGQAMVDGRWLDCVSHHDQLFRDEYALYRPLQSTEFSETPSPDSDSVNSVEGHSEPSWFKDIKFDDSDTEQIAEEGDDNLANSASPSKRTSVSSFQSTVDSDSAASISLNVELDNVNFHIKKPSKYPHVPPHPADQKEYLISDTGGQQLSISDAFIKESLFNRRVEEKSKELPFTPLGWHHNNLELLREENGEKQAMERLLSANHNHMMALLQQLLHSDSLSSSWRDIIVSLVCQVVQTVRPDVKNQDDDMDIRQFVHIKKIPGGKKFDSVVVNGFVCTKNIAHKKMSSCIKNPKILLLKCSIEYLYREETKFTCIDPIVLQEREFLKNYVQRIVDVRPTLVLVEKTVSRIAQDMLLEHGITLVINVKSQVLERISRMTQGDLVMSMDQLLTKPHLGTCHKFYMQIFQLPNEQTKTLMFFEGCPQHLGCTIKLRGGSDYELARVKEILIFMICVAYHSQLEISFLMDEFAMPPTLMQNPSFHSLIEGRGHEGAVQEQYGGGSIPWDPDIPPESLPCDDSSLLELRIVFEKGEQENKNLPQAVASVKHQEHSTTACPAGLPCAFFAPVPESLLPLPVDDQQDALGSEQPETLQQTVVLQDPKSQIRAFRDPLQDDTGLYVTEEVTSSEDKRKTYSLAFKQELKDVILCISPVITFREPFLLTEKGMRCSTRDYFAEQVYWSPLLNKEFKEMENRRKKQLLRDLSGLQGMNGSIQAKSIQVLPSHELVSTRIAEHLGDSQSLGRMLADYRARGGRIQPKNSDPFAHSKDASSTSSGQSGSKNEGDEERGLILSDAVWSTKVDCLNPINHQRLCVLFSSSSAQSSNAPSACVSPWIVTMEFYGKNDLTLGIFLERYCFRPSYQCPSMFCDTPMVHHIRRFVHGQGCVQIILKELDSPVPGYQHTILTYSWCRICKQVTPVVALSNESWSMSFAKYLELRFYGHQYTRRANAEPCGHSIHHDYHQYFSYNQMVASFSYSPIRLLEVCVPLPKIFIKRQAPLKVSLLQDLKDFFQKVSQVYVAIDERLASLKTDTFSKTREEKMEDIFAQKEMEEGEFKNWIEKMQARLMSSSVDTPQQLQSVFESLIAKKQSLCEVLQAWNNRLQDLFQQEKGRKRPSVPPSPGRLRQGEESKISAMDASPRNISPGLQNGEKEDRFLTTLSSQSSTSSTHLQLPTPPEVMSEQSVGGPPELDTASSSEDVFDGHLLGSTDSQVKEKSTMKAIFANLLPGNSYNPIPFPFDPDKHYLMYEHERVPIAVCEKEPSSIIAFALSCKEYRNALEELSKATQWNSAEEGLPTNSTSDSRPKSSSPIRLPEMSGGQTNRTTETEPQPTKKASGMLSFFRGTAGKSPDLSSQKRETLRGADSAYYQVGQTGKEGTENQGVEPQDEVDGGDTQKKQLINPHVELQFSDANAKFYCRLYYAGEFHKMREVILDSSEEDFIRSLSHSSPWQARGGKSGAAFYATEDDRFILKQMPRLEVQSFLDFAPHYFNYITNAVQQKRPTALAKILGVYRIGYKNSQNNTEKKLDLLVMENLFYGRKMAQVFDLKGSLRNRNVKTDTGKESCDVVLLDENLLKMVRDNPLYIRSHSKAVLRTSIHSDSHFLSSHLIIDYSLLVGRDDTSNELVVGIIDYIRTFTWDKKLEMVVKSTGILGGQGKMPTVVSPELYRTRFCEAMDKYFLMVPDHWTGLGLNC

[19] = target: Serine/threonine-protein kinase pim-1 (Homo sapiens) (UniProt P11309); details: Compound concentration 1000.0 nM
Serine/threonine-protein kinase pim-1 (Homo sapiens), sequence (P11309 whole entry, looked up): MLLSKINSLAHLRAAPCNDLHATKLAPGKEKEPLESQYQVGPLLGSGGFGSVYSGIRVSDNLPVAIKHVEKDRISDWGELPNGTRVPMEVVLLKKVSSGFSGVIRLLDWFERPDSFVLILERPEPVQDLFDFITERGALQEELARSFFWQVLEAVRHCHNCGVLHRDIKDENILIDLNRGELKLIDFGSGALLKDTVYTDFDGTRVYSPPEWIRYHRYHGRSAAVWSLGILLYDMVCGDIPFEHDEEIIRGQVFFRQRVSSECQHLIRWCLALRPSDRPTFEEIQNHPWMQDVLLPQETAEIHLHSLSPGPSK

[20] = target: Protein kinase C eta type (Homo sapiens) (UniProt P24723); details: Compound concentration 1000.0 nM
[21] = target: Proto-oncogene tyrosine-protein kinase receptor Ret (Homo sapiens) (UniProt P07949); details: Compound concentration 1000.0 nM
[22] = target: Serine/threonine-protein kinase RIO1 (Homo sapiens) (UniProt Q9BRS2); details: Compound concentration 1000.0 nM
[23] = target: Serine/threonine-protein kinase RIO2 (Homo sapiens) (UniProt Q9BVS4); details: Compound concentration 1000.0 nM
[24] = target: Receptor-interacting serine/threonine-protein kinase 1 (Homo sapiens) (UniProt Q13546); details: Compound concentration 1000.0 nM
[25] = target: Serine/threonine-protein kinase Sgk2 (Homo sapiens) (UniProt Q9HBY8); details: Compound concentration 1000.0 nM
[26] = target: Serine/threonine-protein kinase Sgk3 (Homo sapiens) (UniProt Q96BR1); details: Compound concentration 1000.0 nM
Serine/threonine-protein kinase Sgk3 (Homo sapiens), sequence (Q96BR1 whole entry): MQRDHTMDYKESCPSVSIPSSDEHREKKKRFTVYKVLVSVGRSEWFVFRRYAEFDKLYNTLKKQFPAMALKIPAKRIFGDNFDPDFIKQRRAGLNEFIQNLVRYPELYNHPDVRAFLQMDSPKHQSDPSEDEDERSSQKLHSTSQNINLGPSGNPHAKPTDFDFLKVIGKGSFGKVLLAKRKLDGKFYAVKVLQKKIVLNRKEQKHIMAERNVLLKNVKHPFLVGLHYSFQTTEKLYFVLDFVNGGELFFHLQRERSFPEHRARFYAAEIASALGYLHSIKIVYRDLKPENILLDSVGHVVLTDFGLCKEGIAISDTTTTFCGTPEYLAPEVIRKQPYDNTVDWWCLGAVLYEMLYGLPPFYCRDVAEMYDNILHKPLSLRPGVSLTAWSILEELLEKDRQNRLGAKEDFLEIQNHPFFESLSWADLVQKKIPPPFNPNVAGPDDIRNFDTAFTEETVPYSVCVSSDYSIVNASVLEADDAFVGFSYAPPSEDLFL

[27] = target: STE20-like serine/threonine-protein kinase (Homo sapiens) (UniProt Q9H2G2); details: Compound concentration 1000.0 nM
[28] = target: Mitogen-activated protein kinase kinase kinase 7 (Homo sapiens) (UniProt O43318); details: Compound concentration 1000.0 nM
Mitogen-activated protein kinase kinase kinase 7 (Homo sapiens), sequence (O43318 whole entry): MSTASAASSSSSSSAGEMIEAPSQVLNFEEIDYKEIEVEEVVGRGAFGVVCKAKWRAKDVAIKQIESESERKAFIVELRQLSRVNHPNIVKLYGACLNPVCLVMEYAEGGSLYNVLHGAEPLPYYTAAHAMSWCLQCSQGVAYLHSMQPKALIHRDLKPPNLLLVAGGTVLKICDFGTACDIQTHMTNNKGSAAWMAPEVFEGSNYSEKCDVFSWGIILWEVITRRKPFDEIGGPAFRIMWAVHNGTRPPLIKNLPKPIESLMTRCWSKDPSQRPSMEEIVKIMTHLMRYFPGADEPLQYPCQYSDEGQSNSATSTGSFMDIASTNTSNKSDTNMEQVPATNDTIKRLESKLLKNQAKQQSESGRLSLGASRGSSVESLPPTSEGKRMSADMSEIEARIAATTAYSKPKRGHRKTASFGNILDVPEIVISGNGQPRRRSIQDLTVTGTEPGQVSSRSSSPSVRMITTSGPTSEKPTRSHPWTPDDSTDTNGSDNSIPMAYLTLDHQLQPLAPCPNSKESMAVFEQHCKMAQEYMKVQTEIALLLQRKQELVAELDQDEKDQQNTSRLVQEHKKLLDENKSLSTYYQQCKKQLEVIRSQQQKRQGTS

[29] = target: Serine/threonine-protein kinase TAO2 (Homo sapiens) (UniProt Q9UL54); details: Compound concentration 1000.0 nM
[30] = target: Angiopoietin-1 receptor (Homo sapiens) (UniProt Q02763); details: Compound concentration 1000.0 nM
[31] = target: Activated CDC42 kinase 1 (Homo sapiens) (UniProt Q07912); details: Compound concentration 1000.0 nM
[32] = target: T1, Muscarinic acetylcholine receptor M1 (Homo sapiens) (UniProt P11229); details: Compound concentration 10.0 uM
T1 sequence (whole entry): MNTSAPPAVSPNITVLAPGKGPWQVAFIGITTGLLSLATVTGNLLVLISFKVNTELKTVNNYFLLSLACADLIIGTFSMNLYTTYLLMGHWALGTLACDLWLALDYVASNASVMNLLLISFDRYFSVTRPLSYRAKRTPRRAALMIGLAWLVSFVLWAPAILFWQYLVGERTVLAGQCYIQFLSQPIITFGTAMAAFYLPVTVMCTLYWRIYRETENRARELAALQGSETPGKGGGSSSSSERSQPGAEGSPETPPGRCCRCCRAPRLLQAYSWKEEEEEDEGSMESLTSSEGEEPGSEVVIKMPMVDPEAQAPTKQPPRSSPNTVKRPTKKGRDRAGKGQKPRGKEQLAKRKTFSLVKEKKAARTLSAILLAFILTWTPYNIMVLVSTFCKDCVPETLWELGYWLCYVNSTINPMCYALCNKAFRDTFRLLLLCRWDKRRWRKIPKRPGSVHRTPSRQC

[33] = target: T2, Muscarinic acetylcholine receptor M2 (Homo sapiens) (UniProt P08172); details: Compound concentration 10.0 uM
T2 sequence (whole entry): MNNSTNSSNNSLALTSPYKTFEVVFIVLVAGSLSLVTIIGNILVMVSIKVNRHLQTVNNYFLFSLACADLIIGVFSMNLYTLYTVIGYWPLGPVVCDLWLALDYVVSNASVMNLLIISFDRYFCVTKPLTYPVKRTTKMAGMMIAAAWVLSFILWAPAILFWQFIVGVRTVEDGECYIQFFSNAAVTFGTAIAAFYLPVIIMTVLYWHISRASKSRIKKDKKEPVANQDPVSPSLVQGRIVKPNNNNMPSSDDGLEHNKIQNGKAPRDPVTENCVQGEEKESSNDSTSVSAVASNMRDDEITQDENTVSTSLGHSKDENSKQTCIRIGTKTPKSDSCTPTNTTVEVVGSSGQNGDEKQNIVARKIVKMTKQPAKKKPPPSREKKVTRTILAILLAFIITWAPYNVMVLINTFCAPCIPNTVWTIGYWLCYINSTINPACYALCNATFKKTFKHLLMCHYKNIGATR

O=C(O)[C@@H]1[C@@H](Cn2nnc3ccccc3c2=O)CC[C@H]1C(=O)c1ccc(OCCC2CCOCC2)cc1 [BAY-694]
inactive: residual activity [1] 86% | residual activity [2] 84% | residual activity [3] 64% | residual activity [4] 100% | residual activity [5] 100% | residual activity [6] 100% | residual activity [7] 100% | residual activity [8] 94% | residual activity [9] 100% | residual activity [10] 91% | residual activity [11] 85% | residual activity [12] 94% | residual activity [13] 100% | residual activity [14] 100% | residual activity [15] 100% | residual activity [16] 100% | residual activity [17] 73% | residual activity [18] 87% | residual activity [19] 100% | residual activity [20] 100% | residual activity [21] 100% | residual activity [22] 100% | residual activity [23] 88% | residual activity [24] 100% | residual activity [25] 79% | residual activity [26] 100% | residual activity [27] 88% | residual activity [28] 86% | residual activity [29] 76% | residual activity [30] 100% | residual activity [31] 100% | inhibition [32] 6.4% | inhibition [33] -2.32%

O=C(O)[C@H]1[C@H](Cn2nnc3ccccc3c2=O)CC[C@@H]1C(=O)c1ccc(OCCC2CCOCC2)cc1 [BAY-7598]
inactive: residual activity [1] 75% | residual activity [2] 100% | residual activity [3] 87% | residual activity [4] 100% | residual activity [5] 79% | residual activity [6] 100% | residual activity [7] 100% | residual activity [8] 69% | residual activity [9] 100% | residual activity [10] 100% | residual activity [11] 78% | residual activity [12] 76% | residual activity [13] 100% | residual activity [14] 81% | residual activity [15] 74% | residual activity [16] 97% | residual activity [17] 93% | residual activity [18] 72% | residual activity [19] 95% | residual activity [20] 89% | residual activity [21] 82% | residual activity [22] 100% | residual activity [23] 100% | residual activity [24] 84% | residual activity [25] 92% | residual activity [26] 100% | residual activity [27] 96% | residual activity [28] 100% | residual activity [29] 100% | residual activity [30] 86% | residual activity [31] 100% | inhibition [32] 18% | inhibition [33] 1.41%
